# Measurements as given in DBAASP.
# How the values were obtained:
# Assay in all cases: ≥ marks a high value that may be exact or a test limit, other limits are often not marked, values filed in µg/mL are converted to µM
# [1] = tested on: Candida albicans ATCC 10231
# [2] = tested on: Staphylococcus aureus ATCC 12600
# [3] = tested on: Escherichia coli ATCC 11775
# [4] = tested on: Botrytis cinerea
# [5] = tested on: Cronobacter sakazakii DPC 6440
# [6] = tested on: Listeria monocytogenes LO28
# [7] = tested on: Staphylococcus epidermidis ATCC 12228
# [8] = tested on: Escherichia coli ATCC 25922
# [9] = tested on: Candida albicans ATCC 24433
# [10] = tested on: Staphylococcus capitis 1
# [11] = tested on: Yersinia pseudotuberculosis YPIII
# [12] = tested on: Staphylococcus aureus Cowan 1
# [13] = tested on: Bacillus megaterium Bm11
# [14] = tested on: Xanthomonas vesicatoria DSM 50861
# [15] = tested on: Pseudomonas corrugata DSM 7228
# [16] = tested on: Pseudomonas syringae pv. tomato DC3000
# [17] = tested on: Pectobacterium carotovorum subsp. carotovorum DSM 30168
# [18] = tested on: Clavibacter michiganensis subsp. michiganensis DSM 46294
# [19] = tested on: Pseudomonas syringae pv. syringae DSM 10604
# [20] = tested on: Lactococcus lactis AS1.1690
# [21] = tested on: Staphylococcus aureus AS1.72
# [22] = tested on: Bacillus cereus AS1.126
# [23] = tested on: Pseudomonas aeruginosa CGMCC 1.860
# [24] = tested on: Escherichia coli AS1.349
# [25] = tested on: Enterococcus faecium CGMCC 1.2334
# [26] = tested on: Enterococcus faecalis CGMCC 1.595
# [27] = tested on: Candida parapsilosis ATCC 22019
# [28] = tested on: Bacillus subtilis KCTC 1918
# [29] = tested on: Bacillus megaterium KCTC 1096
# [30] = tested on: Staphylococcus aureus KCTC 1621
# [31] = tested on: Proteus vulgaris
# [32] = tested on: Escherichia coli KCTC 1682
# [33] = tested on: Pseudomonas aeruginosa KCTC 1637
structure (smiles),measurement,setting,value
CC[C@H](C)[C@H](NC(=O)[C@H](C)N)C(=O)N[C@@H](CC(N)=O)C(=O)N1CCC[C@H]1C(=O)N[C@@H](CCCCN)C(=O)N[C@@H](CO)C(=O)N[C@H](C(=O)N[C@@H](CCC(N)=O)C(=O)N[C@@H](CO)C(=O)N[C@@H](CC(C)C)C(=O)N[C@@H](CC(C)C)C(N)=O)C(C)C [AINPKSVQSLL],MIC,[1],> 200 µM
same,MIC,[2],≥ 200 µM
same,MIC,[3],≥ 200 µM
same,MIC,[4],≥ 200 µM
CC[C@H](C)[C@H](NC(=O)[C@H](C)N)C(=O)N[C@@H](CCC(N)=O)C(=O)N1CCC[C@H]1C(=O)N[C@@H](CCCCN)C(=O)N[C@H](C(=O)N[C@@H](CCCCN)C(=O)N[C@H](C(=O)N[C@H](C(=O)N1CCC[C@H]1C(=O)N[C@@H](Cc1ccc(O)cc1)C(=O)N[C@H](C(=O)N[C@@H](CCCN=C(N)N)C(=O)N[C@@H](Cc1ccc(O)cc1)C(=O)N[C@@H](CC(C)C)C(=O)O)C(C)C)[C@@H](C)CC)C(C)C)[C@@H](C)O [AIQPKTKVIPYVRYL],MIC,[5],≥ 78.1 µM
same,MIC,[6],≥ 78.1 µM
CC[C@H](C)[C@H](NC(=O)CNC(=O)[C@@H](NC(=O)[C@H](C)NC(=O)[C@@H](NC(=O)[C@H](CCCCN)NC(=O)[C@@H]1CCCN1C(=O)[C@@H](NC(=O)[C@H](CCSC)NC(=O)[C@H](CO)NC(=O)[C@H](Cc1ccccc1)NC(=O)[C@@H](N)Cc1ccccc1)[C@@H](C)CC)[C@@H](C)CC)[C@@H](C)O)C(=O)N[C@@H](C)C(=O)N[C@@H](CO)C(=O)N[C@@H](CC(C)C)C(=O)N[C@H](C(=O)N[C@@H](CCCCN)C(=O)N[C@@H](CC(N)=O)C(=O)N[C@@H](CC(C)C)C(=O)O)C(C)C [FFSMIPKIATGIASLVKNL],MIC,[7],> 100 µM
same,MIC,[8],> 100 µM
same,MIC,[9],≥ 100 µM
CC[C@H](C)[C@H](NC(=O)CNC(=O)[C@H](CO)NC(=O)[C@H](CC(C)C)NC(=O)[C@@H](NC(=O)[C@H](CCCN=C(N)N)NC(=O)CNC(=O)[C@H](C)NC(=O)[C@H](CC(C)C)NC(=O)[C@@H]1CCCN1C(=O)[C@H](CC(C)C)NC(=O)[C@@H](N)Cc1ccccc1)C(C)C)C(=O)N[C@@H](CC(C)C)C(N)=O [FLPLAGRVLSGIL],MIC,[1],20 µM
same,MIC,[10],≥ 40 µM
same,MIC,[11],≥ 40 µM
same,MIC,[12],≥ 40 µM
same,MIC,[8],> 40 µM
same,MIC,[13],20 µM
CC[C@H](C)[C@H](NC(=O)CNC(=O)[C@H](CO)NC(=O)[C@H](CC(C)C)NC(=O)[C@@H](NC(=O)[C@H](C)NC(=O)CNC(=O)[C@@H](NC(=O)[C@H](CC(C)C)NC(=O)[C@@H]1CCCN1C(=O)[C@H](CC(C)C)NC(=O)[C@@H](N)Cc1ccccc1)[C@@H](C)CC)C(C)C)C(=O)N[C@@H](CC(C)C)C(N)=O [FLPLIGAVLSGIL],MIC,[1],> 40 µM
same,MIC,[10],≥ 40 µM
same,MIC,[11],≥ 40 µM
same,MIC,[12],≥ 40 µM
same,MIC,[8],> 40 µM
same,MIC,[13],≥ 40 µM
CC(C)C[C@H](NC(=O)[C@H](CCCN=C(N)N)NC(=O)[C@H](CCCCN)NC(=O)[C@H](Cc1ccccc1)NC(=O)[C@H](Cc1ccccc1)NC(=O)[C@H](CCCCN)NC(=O)[C@H](Cc1ccccc1)NC(=O)[C@H](CCCCN)NC(=O)[C@H](CCCCN)NC(=O)[C@H](CCCCN)NC(=O)[C@@H](N)CCCN=C(N)N)C(=O)N[C@@H](Cc1ccccc1)C(N)=O [RKKKFKFFKRLF],MIC,[14],0.299 µM
same,MIC,[15],0.149 µM
same,MIC,[16],5.98 µM
same,MIC,[17],5.98 µM
same,MIC,[18],0.299 µM
same,MIC,[19],0.0598 µM
CC(C)[C@H](NC(=O)[C@H](CCCCN)NC(=O)[C@@H](N)CO)C(=O)N[C@@H](Cc1c[nH]c2ccccc12)C(=O)N[C@@H](CCCN=C(N)N)C(=O)N[C@@H](Cc1cnc[nH]1)C(=O)N[C@@H](Cc1c[nH]c2ccccc12)C(=O)O [SKVWRHW],MIC,[20],≥ 100 µM
same,MIC,[21],≥ 100 µM
same,MIC,[22],≥ 100 µM
same,MIC,[23],≥ 100 µM
same,MIC,[24],≥ 100 µM
same,MIC,[25],≥ 100 µM
same,MIC,[26],≥ 100 µM
CC[C@H](C)[C@H](NC(=O)[C@H](CC(C)C)NC(=O)[C@H](CCC(=O)O)NC(=O)[C@H](CO)NC(=O)[C@H](CCCN=C(N)N)NC(=O)[C@@H](N)CO)C(=O)N[C@H](C(=O)N[C@@H](Cc1cnc[nH]1)C(=O)N[C@@H](CCC(N)=O)C(=O)N[C@@H](CCCN=C(N)N)C(=O)N[C@@H](CC(C)C)C(=O)N[C@@H](Cc1ccccc1)C(N)=O)C(C)C [SRSELIVHQRLF],MIC,[27],≥ 269 µM
same,MIC,[9],≥ 269 µM
CC[C@H](C)[C@H](NC(=O)[C@@H]1CCCN1C(=O)[C@@H]1CCCN1C(=O)[C@@H](NC(=O)[C@H](Cc1cnc[nH]1)NC(=O)[C@@H](N)C(C)C)C(C)C)C(=O)N[C@H]1CSSC[C@@H](C(=O)N[C@@H](CCCN=C(N)N)C(=O)N[C@@H](CCCCN)C(=O)O)NC(=O)[C@H](CCC(=O)O)NC(=O)[C@H](CCCN=C(N)N)NC(=O)[C@H](Cc2cnc[nH]2)NC(=O)[C@H](CO)NC1=O [VHVPPICSHRECRK],MIC,[1],> 200 µM
same,MIC,[2],≥ 200 µM
same,MIC,[3],≥ 200 µM
same,MIC,[4],≥ 200 µM
CC[C@H](C)[C@H](NC(=O)[C@H](CCCCN)NC(=O)[C@H](CCCCN)NC(=O)[C@H](Cc1ccccc1)NC(=O)[C@@H](N)Cc1c[nH]c2ccccc12)C(=O)N1CCC[C@H]1C(=O)N[C@@H](CCCCN)C(=O)N[C@@H](Cc1ccccc1)C(=O)N[C@@H](CC(C)C)C(=O)N[C@@H](Cc1cnc[nH]1)C(=O)N[C@@H](CC(C)C)C(=O)N[C@@H](CC(C)C)C(=O)N[C@@H](CCCCN)C(=O)N[C@@H](CCCCN)C(=O)N[C@@H](Cc1ccccc1)C(N)=O [WFKKIPKFLHLLKKF],MIC,[28],0.78 µM
same,MIC,[29],0.78 µM
same,MIC,[30],3.12 µM
same,MIC,[31],12.5 µM
same,MIC,[32],3.12 µM
same,MIC,[33],1.56 µM
CC[C@H](C)[C@H](NC(=O)[C@@H](NC(=O)[C@H](CCCCN)NC(=O)[C@@H](NC(=O)[C@H](CCCCN)NC(=O)[C@@H]1CCCN1C(=O)[C@H](CCC(N)=O)NC(=O)[C@@H](NC(=O)[C@@H](N)Cc1c[nH]c2ccccc12)[C@@H](C)CC)[C@@H](C)O)C(C)C)C(=O)N[C@@H](C)C(=O)N[C@@H](Cc1ccc(O)cc1)C(=O)N[C@H](C(=O)N[C@@H](CCCN=C(N)N)C(=O)N[C@@H](Cc1ccc(O)cc1)C(=O)N[C@@H](CC(C)C)C(=O)O)C(C)C [WIQPKTKVIAYVRYL],MIC,[5],≥ 39.1 µM
same,MIC,[6],2.44 µM
CC[C@H](C)[C@H](NC(=O)[C@@H](N)Cc1c[nH]c2ccccc12)C(=O)N[C@@H](CCC(N)=O)C(=O)N1CCC[C@H]1C(=O)N[C@@H](CCCCN)C(=O)N[C@H](C(=O)N[C@@H](CCCCN)C(=O)N[C@H](C(=O)N[C@H](C(=O)N1CCC[C@H]1C(=O)N[C@@H](Cc1ccc(O)cc1)C(=O)N[C@H](C(=O)N[C@@H](C)C(=O)N[C@@H](Cc1ccc(O)cc1)C(=O)N[C@@H](CC(C)C)C(=O)O)C(C)C)[C@@H](C)CC)C(C)C)[C@@H](C)O [WIQPKTKVIPYVAYL],MIC,[5],≥ 625 µM
same,MIC,[6],≥ 156 µM
